For data set [1], the system named is DLD1 cells. The data set can be described thus: Long term response to mitotic stress (colony formation). It counts as cell-based, human. To be noted: 4 hour exposure 12 hours after release, colonies over three weeks. The protocol: Cells synchronized by a sequential thymidine-aphidicolin block were either not exposed to mitotic stress or exposed to 0.5 μg/ml nocodazole or the TAXOL™ drug for a 4 hour period starting 12 hours after aphidicolin release or release from the G1-S block. The short term response to mitotic stress was evaluated by examining the cell cycle profile at the time of nocodazole removal, 24 or 48 hours later. At the indicated time points, the cells were recovered from the tissue culture plates with trypsin, fixed in 70% ethanol for 10 minutes and incubated with propidium iodide and DNase-free RNase (Roche) in PBS containing 1% fetal bovine serum and 2% Tween-20. The nuclear morphology of the cells was visualized by fluorescence microscopy. The DNA content of the cell population was determined by flow cytometry.
To evaluate the long term response of the cells to survive exposure to mitotic stress, at the time of nocodazole removal, the cells were replated at a density of 200 cells per 100 mm diameter tissue culture dish. The cells were allowed to replicate and colonies were counted 3 weeks later.
To the long term response of the cells to survive exposure to mitotic stress, synchronized DLD1-neo and DLD1-chfr cells were transiently exposed to nocodazole or the TAXOL™ drug, as described above (e.g., exposed to nocodazole or the TAXOL™ drug 12 hours after release from the G1-S block for a 4 hour period). At the time of nocodazole removal, the cells were replated at a density of 200 cells per 100 mm diameter tissue culture dish and then allowed to form colonies over a three-week period.

The test system of data set [2] is eight human cancer cell lines (SW480, DLD1, HT29, HCT116, SAOS2, U20S, IMR5 and NGP). The data set is described as follows: Mitotic index of unsynchronized human cancer cell lines treated with nocodazole. The data set is classed as cell-based. The note with it: 16 hours after nocodazole. The protocol:
All cancer cells were grown in DMEM supplemented with glutamine, penicillin, streptomycin and 10% fetal bovine serum (Life Sciences). Normal human epidermal keratinocytes and osteoblasts were grown in KGM2 and OGM media, respectively (Clonetics). The cells were examined either non-synchronized or synchronized. For synchronization, the cells were treated with 2 mM thymidine for 16 hours, then with 0.25 mM thymidine/deoxycytidine for 9 hours, and then with 0.5 μg/ml aphidicolin for 20–24 hours. The cells were washed three times with PBS between each step [Janss et al., 1998, Exp. Cell Res., 243:29–38]. To induce mitotic stress, synchronized or non-synchronized cells were exposed to 0.5 μg/ml nocodazole, 5 μM of the TAXOL™ drug or 0.5 μg/ml colcemid. Cells were grown on 8-well culture slides coated with human fibronectin (Becton Dickinson) and were examined as either non-synchronized or synchronized cells. […] The slides were sealed with coverslips using Fluoromount-G (Upstate Biotechnology) and visualized with a fluorescence microscope (Leica). […] The cells were scored for Mitotic Index. […]

The test system of data set [3] is DLD1 cells. The data set can be described thus: Centrosome staining of synchronized DLD1-neo and DLD1-chfr cells. The data set is classed as cell-based, human. The note with it: nocodazole added 12 hours after aphidicolin release, 14 hour time point. The protocol:
Cells were grown on 8-well culture slides coated with human fibronectin (Becton Dickinson) and were examined as either non-synchronized or synchronized cells. The cells were prepared for microscopy by washing them three times with KM buffer (10 mM MES, pH 6.2, 10 mM NaCl, 1.5 mM MgCl2, 2.5% glycerol), fixing with 1% paraformaldehyde in 0.5×KM buffer for 15 minutes, washing once with 0.2% Triton X-100 in phosphate buffer saline (PBS) for 20 minutes and three times with PBS. For centrosome staining, the cells were incubated for 1 hour with a 1:500 dilution of autoimmune serum Ab598 in PBS, washed three times with PBS, incubated with a Texas Red-conjugated anti-human secondary antibody (Vector Labs) diluted 1:200 in PBS and washed again three times with PBS. For DNA staining, the cells were incubated with DAP1 ([…] in PBS). The slides were sealed with coverslips using Fluoromount-G (Upstate Biotechnology) and visualized with a fluorescence microscope (Leica). Separate images, acquired using filters corresponding to the excitation maxima of DAP1 and Texas Red, were merged with IRIX image tools (Silicon Graphics).
To correlate the timing of the Chfr effect with progress through the cell cycle, synchronized cells were stained with DAP1 to monitor chromosome condensation and with an antibody that recognizes the centrosomes. […]

In data set [4] the test system is cyclin B/cdc2. The data set is described as follows: Cdc2 kinase activity in synchronized DLD1 cells. The data set is classed as cell-based, human. To be noted: synchronized DLD1-neo and DLD1-chfr cells treated 12 hours after release from the G1-S block. On the procedure:
Whole cell extracts, prepared as described above, were incubated with anti-cyclin B antibody (Santa Cruz) coupled to protein G beads (Pharmacia) in CL buffer for 1 hour. The beads were washed three times with CL buffer and then twice with cdc2 kinase (CK) buffer (50 mM HEPES, pH 7.0, 10 mM MgCl2, 10 mM MnCl2, 200 mM NaCl). The beads were then incubated with 1 μg histone H1 (Upstate Biotechnology) in CK buffer supplemented with 30 mM DTT, 0.06 μM ATP and 1 μCi ^32P-γ-ATP for 20 minutes at 30° C., at which time the reactions were subjected to denaturing gel electrophoresis. Phosphorylation of histone H1 was detected by autoradiography.

In data set [5] the target is T1, Chfr (Homo sapiens, UniProt Q96EP1).
T1 construct: Reactions were performed with full-length Chfr fused to GST; made in house; host or cells: E. coli (crude bacterial lysates)
T1 sequence (Q96EP1 1-664): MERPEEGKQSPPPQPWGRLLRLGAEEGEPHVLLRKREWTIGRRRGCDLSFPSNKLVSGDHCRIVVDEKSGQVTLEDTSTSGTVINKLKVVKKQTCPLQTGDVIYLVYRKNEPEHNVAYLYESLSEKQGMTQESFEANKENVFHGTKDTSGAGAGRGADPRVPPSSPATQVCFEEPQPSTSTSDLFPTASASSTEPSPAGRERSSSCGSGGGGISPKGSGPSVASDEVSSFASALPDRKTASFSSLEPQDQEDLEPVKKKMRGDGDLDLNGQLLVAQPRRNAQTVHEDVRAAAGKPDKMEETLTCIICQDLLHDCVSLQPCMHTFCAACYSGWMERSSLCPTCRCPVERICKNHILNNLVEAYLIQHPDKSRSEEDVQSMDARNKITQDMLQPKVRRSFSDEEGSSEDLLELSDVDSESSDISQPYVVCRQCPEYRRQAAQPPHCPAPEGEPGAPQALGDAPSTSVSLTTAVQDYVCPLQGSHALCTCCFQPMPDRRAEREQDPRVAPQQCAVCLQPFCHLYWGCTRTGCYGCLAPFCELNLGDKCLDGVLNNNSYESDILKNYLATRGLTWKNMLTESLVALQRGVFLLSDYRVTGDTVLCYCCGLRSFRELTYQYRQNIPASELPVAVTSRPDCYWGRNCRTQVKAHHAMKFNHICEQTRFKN
The data set is described as follows: Ubiquitin-protein ligase assay in vitro. The data set is classed as biochemical. The note with it: crude bacterial lysates with E1, GST-Chfr, ubiquitin and ATP. The protocol:
Recombinant E. coli bacterial cells that have been genetically engineered to express the E1 ubiquitin-activating enzyme and the E2 ubiquitin-conjugating enzyme (either UbchD2 or Ubch8) and a […] comprised of glutathione S-transferase fused to the N-terminus of Chfr were lysed. The lysates were incubated in the presence of ubiquitin and ATP and the reaction allowed to proceed for 20 minutes at 30° C. GST-Chfr was captured on glutathione beads, eluted with SDS sample buffer, and resolved by SDS-PAGE. The SDS gel was immunoblotted with antibodies that recognize ubiquitin. Reactions were performed with full-length Chfr fused to GST and reactions were performed with Chfr lacking amino acid residues 1–280 of SEQ ID NO: 2, which contain the FHA domain.

Consider 3 molecules from patent US7176293B1, “Compositions and methods to enhance sensitivity of cancer cells to mitotic stress” (The Wistar Institute of Anatomy and Biology, priority 1999, dated 2007).

On to `CC(=O)O[C@H]1C(=O)[C@@]2(C)[C@H]([C@H](OC(=O)c3ccccc3)[C@]3(O)C[C@H](OC(=O)[C@H](O)[C@@H](NC(=O)c4ccccc4)c4ccccc4)C(C)=C1C3(C)C)[C@]1(OC(C)=O)CO[C@@H]1C[C@@H]2O` [TAXOL™ drug], for which the figures for the “number of colony-forming units (CFUs)” value in data set [1] (DLD1-chfr cells) and in data set [1] (DLD1-neo cells) were “unaffected” and “decrease”, respectively.

As for `COC(=O)Nc1nc2ccc(C(=O)c3cccs3)cc2[nH]1` [nocodazole], the “mitotic index (fraction of cells that had condensed chromosomes)” value in data set [2] (cell lines that expressed wild-type Chfr) is reported as “low”; in data set [2] (cell lines with no detectable Chfr expression and U20S cells (variant chfr)) it was “high”. Moreover, the centrosome separation result in data set [3] is “inhibited”. The “Cyclin B/cdc2 activity” value in data set [4] is listed as “high”. Moreover, the “number of colony-forming units (CFUs)” value in data set [1] (DLD1-chfr cells) was “unaffected”; in data set [1] (DLD1-neo cells), “decrease”.

Consider Ubch8: E2 ubiquitin-conjugating enzyme, for which the “ability of the E2 ubiquitin-conjugating enzyme to support ligase activity of Chfr” value in data set [5] is “did not function in this assay”.
